Molecular target: T1, recombinant autotaxin (Homo sapiens, UniProt Q13822)
T1 construct: made in house; host or cells: Hi5 insect cells (baculovirus)
Test: Autotaxin test (enzyme test), Amplex Red fluorescence
Type: biochemical
Details: substrate LPC 75 μM, Amplex Red detection, read-out: IC50 (autotaxin inhibition, enzyme test)
Description: Autotaxin Inhibition (Enzyme Test)
Autotaxin Test (Enzyme Test)
The autotaxin activity is measured indirectly using Amplex Red reagent. Amplex Red is measured here as fluorogenic indicator for the H2O2 formed. In detail, autotaxin converts the substrate lysophosphatidylcholine (LPC) into phosphocholine and lysophosphatidylic acid (LPA). After this reaction, the phosphocholine is reacted with alkaline phosphatase to give inorganic phosphate and choline. In the next step, choline is oxidised by choline oxidase to give betaine, with formation of H2O2. H2O2 reacts with Amplex Red reagent in the presence of peroxidase (horseradish peroxidase) in a 1:1 stoichiometry and forms the highly fluorescent resorufin. The fluorescence is measured in a reaction-dependent kinetic mode in order that fluorescent signals from possible other fluorescent substances which are not involved in the reaction can be corrected out.
1.5 μl of a standard solution or of the test substances (substances with the name A(n)) in individual concentrations dissolved in 20 mM Hepes pH 7.2 with a maximum of 7.7% of DMSO are pre-incubated together with 10 μl (16 ng) of highly purified recombinant autotaxin in a black microtitre plate provided with 384 wells at 22° C. for 30 min. The reaction is then initiated by addition of 5 μl of L-α-lysophosphatidylcholine (LPC), where the final concentration of LPC is 75 μM. The mixture is incubated at 37° C. for 90 min. After the incubation, Amplex Red reagent, peroxidase (horseradish peroxidase) and choline oxidase is added, and the fluorescence is immediately measured at 612 nm with excitation of 485 nm in a “Tecan Ultra multimode” reader. The activity of autotaxin is calculated indirectly via detection of the H2O2 formed. • Material: • Microtitre plate: PS microplate, 384 wells, small volume, black Corning, Cat #3677 • Protein: recombinant autotaxin (Baculovirale Hi5 Expression) • Substrate: L-α-lysophosphatidylcholine (chicken egg)); Avanti Polar Lipids #830071 P • Standard: C14 LPA, Avanti Polar Lipids, Cat #857120P • Detection reagent: Amplex Red reagent; Invitrogen #A12222; dissolved in 1.923 ml of DMSO peroxidase type VI-A (horseradish) from Sigma #P6782; dissolved in 7.45 ml of test buffer, choline oxidase; Sigma #C5896; dissolved in 2.47 ml of test buffer • Detection reagent mix: 1:100 dilution of Amplex Red reagent in test buffer • Test buffer: 200 mM Tris HCl, Merck, Cat #1.08219, pH 7.9, 0.1% of BSA, lipid-free, Roche Cat #775835

| Compound | IC50 |
| --- | --- |
| Cc1cc(C)c(NC(=O)Nc2[nH]c(Cc3ccc(C(=O)O)o3)nc2C(N)=O)c(C)c1 [Compound A31, 5-{4-Carbamoyl-5-[3-(2,4,6-trimethylphenyl)-ureido]-1H-imidazol-2-ylmethyl}furan-2-carboxylic acid] | 1 to 10 µM |
| NC(=O)c1nc(Cc2ccc(C(=O)NCCc3c[nH]cn3)cc2)[nH]c1NC(=O)Nc1ccc(C(F)(F)F)cc1 [Compound A103, 2-{4-[2-(1H-Imidazol-4-yl)ethylcarbamoyl]benzyl}-5-[3-(4-trifluoromethylphenyl)ureido]-1H-imidazole-4-carboxamide] | > 10 µM |
| CCCCCc1ccc(NC(=O)Nc2[nH]c(Cc3ccc(OCC(=O)O)cc3)nc2C(N)=O)cc1 [Compound A43, (4-{4-Carbamoyl-5-[3-(4-pentylphenyl)ureido]-1 H-imidazol-2-ylmethyl}phenoxy)acetic acid] | 1 to 10 µM |
| CCCCc1ccc(NC(=O)Nc2[nH]c(Cc3ccc(C(=O)N4CCN(C)CC4)o3)nc2C(N)=O)cc1 [Compound A85, 5-[3-(4-Butylphenyl)ureido]-2-[5-(4-methyl-piperazine-1-carbonyl)furan-2-ylmethyl]-1H-imidazole-4-carboxamide] | 1 to 10 µM |
| NC(=O)c1nc(-c2ccc(CC(=O)O)cc2)[nH]c1NC(=O)Nc1cccc(Cl)c1 [Compound A21, (4-{4-Carbamoyl-5-[3-(3-chlorophenyl)ureido]-1H-imidazol-2-yl}phenyl)acetic acid] | > 10 µM |
| CCc1ccc(NC(=O)Nc2[nH]c(Cc3ccc(OCC(=O)O)cc3)nc2C(N)=O)cc1 [Compound A42, (4-{4-Carbamoyl-5-[3-(4-ethylphenyl)ureido]-1H imidazol-2-ylmethyl}phenoxy)acetic acid] | 1 to 10 µM |
| NC(=O)c1nc(Cc2ccc(OCC(=O)O)cc2)[nH]c1NC(=O)c1cc(-c2ccc(Cl)cc2)n[nH]1 [Compound B82] | > 10 µM |
| NC(=O)c1nc(Cc2ccc(C(=O)O)s2)[nH]c1NC(=O)Nc1cccc(C(F)(F)F)c1 [Compound A65, 5-{4-Carbamoyl-5-[3-(3-trifluoromethylphenyl)-ureido]-1H-imidazol-2-ylmethyl}thiophene-2-carboxylic acid] | > 10 µM |
| CCc1ccc(NC(=O)Nc2[nH]c(-c3ccc(OCC(=O)O)cc3)nc2C(N)=O)cc1 [Compound A54, (4-{4-Carbamoyl-5-[3-(4-ethylphenyl)ureido]-1H-imidazol-2-yl}phenoxy)acetic acid] | 1 to 10 µM |
| CCc1ccc(NC(=O)Nc2[nH]c(COc3ccc(CC(=O)O)cc3)nc2C(N)=O)cc1 [Compound A61, (4-{4-Carbamoyl-5-[3-(4-ethylphenyl)ureido]-1H-imidazol-2-ylmethoxy}phenyl)acetic acid] | 1 to 10 µM |
| Cc1ccc(NC(=O)Nc2[nH]c(-c3ccc(CC(=O)O)cc3)nc2C(N)=O)c(C)c1 [Compound A24, (4-{4-Carbamoyl-5-[3-(2,4-dimethylphenyl)-ureido]-1H-imidazol-2-yl}phenyl)acetic acid] | > 10 µM |
| NC(=O)c1nc(Cc2ccc(C(=O)O)cc2)[nH]c1NC(=O)Nc1ccc(Cl)cc1 [Compound A6, 4-{4-Carbamoyl-5-[3-(4-chlorophenyl)ureido]-1H imidazol-2-ylmethyl}benzoic acid] | 1 to 10 µM |
| Cc1cccc(C)c1NC(=O)Nc1[nH]c(-c2ccc(OCC(=O)O)cc2)nc1C(N)=O [Compound A48, (4-{4-Carbamoyl-5-[3-(2,6-dimethylphenyl)-ureido]-1H-imidazol-2-yl}phenoxy)acetic acid] | > 10 µM |
| CCc1ccc(NC(=O)Nc2[nH]c(Cc3ccc(C(=O)O)o3)nc2C(N)=O)cc1 [Compound A11, 5-{4-Carbamoyl-5-[3-(4-ethylphenyl)ureido]-1H-imidazol-2-ylmethyl}furan-2-carboxylic acid] | 1 to 10 µM |
| Cc1ccc(NC(=O)Nc2[nH]c(Cc3ccc(C(=O)O)s3)nc2C(N)=O)cc1 [Compound A69, 5-[4-Carbamoyl-5-(3-p-tolylureido)-1H-imidazol 2-ylmethyl]thiophene-2-carboxylic acid] | > 10 µM |
| CC(C)c1ccc(NC(=O)Nc2[nH]c(-c3ccc(CC(=O)O)cc3)nc2C(N)=O)cc1 [Compound A23, (4-{4-Carbamoyl-5-[3-(4-isopropylphenyl)ureido]-1H-imidazol-2-yl}phenyl)acetic acid] | > 10 µM |

The remaining lines, values ahead:

| IC50 | Compound |
| --- | --- |
| > 10 µM | NC(=O)c1nc(Cc2ccc(OCC(=O)O)cc2)[nH]c1NC(=O)Nc1cc(C(F)(F)F)ccc1F [Compound A44, (4-{4-Carbamoyl-5-[3-(2-fluoro-5-trifluoromethyl-phenyl)ureido]-1H-imidazol-2-ylmethyl}phenoxy)-acetic acid] |
| 1 to 10 µM | NC(=O)c1nc(Cc2ccc(C(=O)O)cc2)[nH]c1NC(=O)Nc1cccs1 [Compound A102, 4-[4-Carbamoyl-5-(3-thiophen-2-ylureido)-1H-imidazol-2-ylmethyl]benzoic acid] |
| > 10 µM | CCCCc1ccc(NC(=O)Nc2[nH]c(Cc3ccc(C(=O)N(C)CCC)o3)nc2C(N)=O)cc1 [Compound A90, 5-[3-(4-Butylphenyl)ureido]-2-[5-(methylpropyl-carbamoyl)furan-2-ylmethyl]-1H-imidazole-4-carboxamide] |
| 1 to 10 µM | Cc1ccc(NC(=O)Nc2[nH]c(COc3ccc(CC(=O)O)cc3)nc2C(N)=O)c(C)c1 [Compound A60, (4-{4-Carbamoyl-5-[3-(2,4-dimethylphenyl)-ureido]-1H-imidazol-2-ylmethoxy}phenyl)acetic acid] |
| > 10 µM | CCCCc1ccc(NC(=O)Nc2[nH]c(Cc3ccc(C(=O)N4C[C@@H](C)O[C@@H](C)C4)o3)nc2C(N)=O)cc1 [Compound A82, 5-[3-(4-Butylphenyl)ureido]-2-[5-((5R,6S)-2,6-dimethylmorpholine-4-carbonyl)furan-2-yl-methyl]-1H-imidazole-4-carboxamide] |
| 1 to 10 µM | CC(C)c1ccc(NC(=O)Nc2[nH]c(COc3ccc(CC(=O)O)cc3)nc2C(N)=O)cc1 [Compound A57, (4-{4-Carbamoyl-5-[3-(4-isopropylphenyl)ureido]-1H-imidazol-2-ylmethoxy}phenyl)acetic acid] |
| > 10 µM | CC(C)c1ccccc1NC(=O)Nc1[nH]c(Cc2ccc(C(=O)O)cc2)nc1C(N)=O [Compound A92, 4-{4-Carbamoyl-5-[3-(2-isopropylphenyl)ureido]-1H-imidazol-2-ylmethyl}benzoic acid] |
| > 10 µM | Cc1cccc(C)c1NC(=O)Nc1[nH]c(Cc2ccc(C(=O)O)o2)nc1C(N)=O [Compound A26, 5-{4-Carbamoyl-5-[3-(2,6-dimethylphenyl)-ureido]-1H-imidazol-2-ylmethyl}furan-2-carboxylic acid] |
| 1 to 10 µM | NC(=O)c1nc(-c2ccc(OCC(=O)O)cc2)[nH]c1NC(=O)Nc1cc(C(F)(F)F)ccc1F [Compound A55, (4-{4-Carbamoyl-5-[3-(2-fluoro-5-trifluoromethyl-phenyl)ureido]-1H-imidazol-2-yl}phenoxy)acetic acid] |
| > 10 µM | NC(=O)c1nc(-c2ccc(OCC(=O)O)cc2)[nH]c1NC(=O)Nc1ccc(F)cc1 [Compound A46, (4-{4-Carbamoyl-5-[3-(4-fluorophenyl)ureido]-1H-imidazol-2-yl}phenoxy)acetic acid] |
| > 10 µM | COC(=O)c1ccc(Cc2nc(C(N)=O)c(NC(=O)Nc3ccc(OC(F)(F)F)cc3)[nH]2)cc1 [Compound A99, Methyl 4-{4-carbamoyl-5-[3-(4-trifluoromethoxy-phenyl)ureido]-1H-imidazol-2-ylmethyl}benzoate] |
| > 10 µM | Cc1c(Cl)cccc1NC(=O)Nc1[nH]c(Cc2ccc(C(=O)O)o2)nc1C(N)=O [Compound A13, 5-{4-Carbamoyl-5-[3-(3-chloro-2-methylphenyl)-ureido]-1H-imidazol-2-ylmethyl}furan-2-carboxylic acid] |
| 1 to 10 µM | CC(C)c1ccc(NC(=O)Nc2[nH]c(Cc3ccc(C(=O)O)o3)nc2C(N)=O)cc1 [Compound A12, 5-{4-Carbamoyl-5-[3-(4-isopropylphenyl)ureido]-1H-imidazol-2-ylmethyl}furan-2-carboxylic acid] |
| > 10 µM | NC(=O)c1nc(Cc2ccc([N+](=O)[O-])cc2)[nH]c1NC(=O)Nc1ccc(C(F)(F)F)cc1 [Compound A96, 2-(4-Nitrobenzyl)-5-[3-(4-trifluoromethylphenyl)-ureido]-1H-imidazole-4-carboxamide] |
| > 10 µM | COC(=O)c1ccc(Cc2nc(C(N)=O)c(NC(=O)Nc3ccc(C(F)(F)F)cc3)[nH]2)cc1 [Compound A98, Methyl 4-{4-carbamoyl-5-[3-(4-trifluoromethyl-phenyl)ureido]-1H-imidazol-2-ylmethyl}benzoate] |
